Blank lines part the entries; values can stand above or below the molecule they belong to.
Key:
[1] = biological target: Macrophage colony-stimulating factor 1 receptor (Homo sapiens) (UniProt P07333); test: Selectivity interaction (KinomeScan (DiscoverX)) EUB0000699a CSF1R; conditions: at 10 µM
[2] = biological target: Tyrosine-protein kinase Fyn (Homo sapiens) (UniProt P06241); conditions: at 10 µM
[3] = biological target: T1, Serine/threonine-protein kinase LATS1 (Homo sapiens) (UniProt O95835); test: Selectivity interaction (KinomeScan (DiscoverX)) EUB0000655a LATS1; conditions: at 10 µM
T1 sequence (whole entry): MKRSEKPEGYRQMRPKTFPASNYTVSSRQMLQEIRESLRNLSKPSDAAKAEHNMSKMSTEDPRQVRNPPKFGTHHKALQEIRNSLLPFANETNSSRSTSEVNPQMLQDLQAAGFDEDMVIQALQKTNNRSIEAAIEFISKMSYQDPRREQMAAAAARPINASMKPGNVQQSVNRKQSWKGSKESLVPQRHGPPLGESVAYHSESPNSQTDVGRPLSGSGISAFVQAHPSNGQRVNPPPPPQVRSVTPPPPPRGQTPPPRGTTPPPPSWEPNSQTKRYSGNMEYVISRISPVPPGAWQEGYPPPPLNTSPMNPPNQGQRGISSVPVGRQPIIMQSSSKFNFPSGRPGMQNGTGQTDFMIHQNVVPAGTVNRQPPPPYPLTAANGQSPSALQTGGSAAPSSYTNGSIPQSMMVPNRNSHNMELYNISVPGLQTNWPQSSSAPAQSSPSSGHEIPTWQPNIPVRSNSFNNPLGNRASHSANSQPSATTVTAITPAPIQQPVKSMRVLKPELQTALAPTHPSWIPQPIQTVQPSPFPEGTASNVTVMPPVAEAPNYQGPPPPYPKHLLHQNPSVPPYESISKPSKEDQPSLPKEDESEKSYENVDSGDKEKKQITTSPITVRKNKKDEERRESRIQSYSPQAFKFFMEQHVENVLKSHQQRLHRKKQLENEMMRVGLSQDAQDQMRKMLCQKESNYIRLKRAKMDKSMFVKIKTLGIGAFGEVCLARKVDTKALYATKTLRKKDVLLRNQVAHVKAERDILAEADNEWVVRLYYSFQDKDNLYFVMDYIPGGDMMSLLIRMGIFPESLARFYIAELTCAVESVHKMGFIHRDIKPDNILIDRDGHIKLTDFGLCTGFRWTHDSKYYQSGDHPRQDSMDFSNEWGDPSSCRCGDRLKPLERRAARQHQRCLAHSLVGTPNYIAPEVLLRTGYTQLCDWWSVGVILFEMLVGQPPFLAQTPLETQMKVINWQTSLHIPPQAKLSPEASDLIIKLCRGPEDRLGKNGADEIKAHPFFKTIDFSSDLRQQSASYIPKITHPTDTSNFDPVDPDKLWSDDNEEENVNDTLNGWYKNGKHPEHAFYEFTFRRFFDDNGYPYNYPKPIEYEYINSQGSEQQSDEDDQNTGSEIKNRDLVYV

[4] = biological target: Mitogen-activated protein kinase 1 (Homo sapiens, UniProt P28482); test: Selectivity interaction (SelectScreen profiling (Invitrogen)) EUB0000607a MAPK1; conditions: at 2 µM
Sequence of Mitogen-activated protein kinase 1 (P28482 whole entry, canonical isoform): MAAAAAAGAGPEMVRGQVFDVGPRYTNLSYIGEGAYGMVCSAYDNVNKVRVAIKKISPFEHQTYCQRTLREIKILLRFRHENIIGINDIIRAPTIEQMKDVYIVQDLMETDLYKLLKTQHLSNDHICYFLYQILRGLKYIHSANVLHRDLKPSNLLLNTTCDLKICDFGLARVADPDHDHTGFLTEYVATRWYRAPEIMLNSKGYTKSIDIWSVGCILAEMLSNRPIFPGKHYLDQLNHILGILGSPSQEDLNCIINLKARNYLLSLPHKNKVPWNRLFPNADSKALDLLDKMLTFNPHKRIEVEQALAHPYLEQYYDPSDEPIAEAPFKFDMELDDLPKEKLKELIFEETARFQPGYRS

[5] = biological target: Casein kinase I isoform alpha (Homo sapiens, UniProt P48729); test: Selectivity interaction (KinomeScan (DiscoverX)) EUB0001619a CSNK1A1; conditions: at 1 µM
Sequence of Casein kinase I isoform alpha (P48729 2-337 limits assumed): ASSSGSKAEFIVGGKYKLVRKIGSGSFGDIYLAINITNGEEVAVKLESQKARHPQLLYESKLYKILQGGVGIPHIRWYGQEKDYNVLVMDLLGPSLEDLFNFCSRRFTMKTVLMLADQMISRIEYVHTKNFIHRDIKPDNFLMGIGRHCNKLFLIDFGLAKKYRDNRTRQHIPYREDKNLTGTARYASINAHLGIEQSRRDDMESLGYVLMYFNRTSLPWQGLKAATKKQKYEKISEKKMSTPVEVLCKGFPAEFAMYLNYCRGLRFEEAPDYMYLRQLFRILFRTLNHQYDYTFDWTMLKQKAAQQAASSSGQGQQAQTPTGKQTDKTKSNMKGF

[6] = biological target: Homeodomain-interacting protein kinase 2 (Homo sapiens, UniProt Q9H2X6); test: Selectivity interaction (KinomeScan (DiscoverX)) EUB0001619a HIPK2; conditions: at 1 µM
Sequence of Homeodomain-interacting protein kinase 2 (Q9H2X6 whole entry, looked up): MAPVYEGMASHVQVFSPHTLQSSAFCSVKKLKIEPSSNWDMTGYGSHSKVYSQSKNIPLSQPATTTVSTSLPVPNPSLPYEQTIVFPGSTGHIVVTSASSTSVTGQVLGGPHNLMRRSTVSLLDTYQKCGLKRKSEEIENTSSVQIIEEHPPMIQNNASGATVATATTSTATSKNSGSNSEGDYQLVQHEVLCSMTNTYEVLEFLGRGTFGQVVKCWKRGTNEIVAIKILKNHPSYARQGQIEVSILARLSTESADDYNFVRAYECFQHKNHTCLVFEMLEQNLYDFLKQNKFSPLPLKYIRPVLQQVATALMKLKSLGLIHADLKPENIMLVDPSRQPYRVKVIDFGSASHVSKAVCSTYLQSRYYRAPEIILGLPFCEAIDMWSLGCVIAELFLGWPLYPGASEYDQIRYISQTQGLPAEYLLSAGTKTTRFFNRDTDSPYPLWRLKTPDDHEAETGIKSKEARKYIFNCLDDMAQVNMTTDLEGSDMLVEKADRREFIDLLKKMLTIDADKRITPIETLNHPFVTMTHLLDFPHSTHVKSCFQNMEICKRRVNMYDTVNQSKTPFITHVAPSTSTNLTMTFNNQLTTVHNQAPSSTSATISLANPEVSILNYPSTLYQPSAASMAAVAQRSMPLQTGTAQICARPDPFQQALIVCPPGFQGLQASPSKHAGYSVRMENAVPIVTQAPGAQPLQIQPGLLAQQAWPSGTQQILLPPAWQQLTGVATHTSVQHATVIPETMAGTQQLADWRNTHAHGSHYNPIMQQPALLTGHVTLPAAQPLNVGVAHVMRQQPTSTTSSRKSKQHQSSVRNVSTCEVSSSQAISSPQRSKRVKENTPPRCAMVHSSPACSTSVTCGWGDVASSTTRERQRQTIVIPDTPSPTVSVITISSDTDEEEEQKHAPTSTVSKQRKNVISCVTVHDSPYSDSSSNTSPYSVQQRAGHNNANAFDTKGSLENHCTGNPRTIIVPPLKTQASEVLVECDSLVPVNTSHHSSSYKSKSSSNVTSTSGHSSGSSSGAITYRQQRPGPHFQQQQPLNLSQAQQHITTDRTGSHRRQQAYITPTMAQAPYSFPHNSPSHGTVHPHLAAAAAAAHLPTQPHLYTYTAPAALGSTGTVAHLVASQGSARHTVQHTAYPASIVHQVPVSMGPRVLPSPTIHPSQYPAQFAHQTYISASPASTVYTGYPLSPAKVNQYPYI

[7] = biological target: Serine/threonine-protein kinase Chk2 (Homo sapiens) (UniProt O96017); test: Selectivity interaction (Kinase panel (KiNativ target engagement assay in Jurkat cells)) EUB0001635a CHEK2; format: cell-based; conditions: at 1 µM
Sequence of Serine/threonine-protein kinase Chk2 (Homo sapiens) (O96017 whole entry): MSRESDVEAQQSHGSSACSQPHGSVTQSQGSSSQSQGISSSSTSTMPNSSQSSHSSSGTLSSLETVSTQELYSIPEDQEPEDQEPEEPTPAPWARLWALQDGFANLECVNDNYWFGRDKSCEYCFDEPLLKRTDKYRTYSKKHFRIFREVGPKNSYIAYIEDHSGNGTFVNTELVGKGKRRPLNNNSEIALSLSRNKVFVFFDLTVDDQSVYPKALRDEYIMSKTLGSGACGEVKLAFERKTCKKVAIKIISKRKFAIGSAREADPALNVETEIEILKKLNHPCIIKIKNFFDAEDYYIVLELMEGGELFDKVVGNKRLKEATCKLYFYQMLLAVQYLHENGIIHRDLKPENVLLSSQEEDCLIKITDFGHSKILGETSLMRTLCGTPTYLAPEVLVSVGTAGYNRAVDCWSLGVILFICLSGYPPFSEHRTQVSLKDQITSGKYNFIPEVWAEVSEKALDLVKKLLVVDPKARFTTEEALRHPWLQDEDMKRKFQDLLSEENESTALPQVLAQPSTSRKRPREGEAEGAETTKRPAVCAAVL

[8] = biological target: Calcium/calmodulin-dependent protein kinase type II subunit delta (Homo sapiens) (UniProt Q13557); test: Selectivity interaction (ActivX KiNativ screen (kinase selectivity in THP-1 cell lysates)) EUB0000639a CAMK2D; format: subcellular; conditions: lysate
Sequence of Calcium/calmodulin-dependent protein kinase type II subunit delta (Homo sapiens) (Q13557 whole entry): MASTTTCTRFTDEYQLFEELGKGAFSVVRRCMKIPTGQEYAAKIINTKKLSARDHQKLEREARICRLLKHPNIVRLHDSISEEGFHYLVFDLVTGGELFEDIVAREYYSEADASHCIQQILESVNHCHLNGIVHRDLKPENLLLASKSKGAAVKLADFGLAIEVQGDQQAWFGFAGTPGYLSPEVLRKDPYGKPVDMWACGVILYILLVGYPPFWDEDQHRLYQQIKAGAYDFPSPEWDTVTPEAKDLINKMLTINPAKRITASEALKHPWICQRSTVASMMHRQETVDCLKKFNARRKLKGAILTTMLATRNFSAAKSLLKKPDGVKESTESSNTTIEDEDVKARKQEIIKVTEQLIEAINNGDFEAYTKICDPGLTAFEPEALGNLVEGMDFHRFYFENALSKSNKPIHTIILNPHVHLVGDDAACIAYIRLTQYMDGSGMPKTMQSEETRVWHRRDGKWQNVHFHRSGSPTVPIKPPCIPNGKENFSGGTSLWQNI

[9] = biological target: G protein-coupled receptor kinase 6 (Homo sapiens) (UniProt P43250); test: Selectivity interaction (Kinase panel (Invitrogen)) EUB0000639a GRK6; conditions: at 200 nM
Sequence of G protein-coupled receptor kinase 6 (Homo sapiens) (P43250 whole entry, looked up): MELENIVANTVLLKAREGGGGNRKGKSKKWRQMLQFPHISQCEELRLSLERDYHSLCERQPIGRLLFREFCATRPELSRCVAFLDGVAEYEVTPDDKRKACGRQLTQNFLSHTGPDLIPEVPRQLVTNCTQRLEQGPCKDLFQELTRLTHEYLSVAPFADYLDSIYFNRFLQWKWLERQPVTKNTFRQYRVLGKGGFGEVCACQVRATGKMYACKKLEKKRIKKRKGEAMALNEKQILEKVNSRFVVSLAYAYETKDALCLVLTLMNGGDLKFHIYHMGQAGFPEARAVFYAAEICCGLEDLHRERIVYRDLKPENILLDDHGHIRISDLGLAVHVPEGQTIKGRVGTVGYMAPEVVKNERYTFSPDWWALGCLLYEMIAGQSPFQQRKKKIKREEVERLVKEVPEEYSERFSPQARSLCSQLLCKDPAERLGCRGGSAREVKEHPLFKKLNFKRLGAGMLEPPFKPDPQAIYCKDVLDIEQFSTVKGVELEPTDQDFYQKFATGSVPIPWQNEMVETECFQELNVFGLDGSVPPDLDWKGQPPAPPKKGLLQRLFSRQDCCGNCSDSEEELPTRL

[10] = biological target: Histone-lysine N-methyltransferase 2A (Homo sapiens) (UniProt Q03164); test: Selectivity interaction (Bromodomain panel (DSF asssay)) EUB0000270b MLL

Sequence of Tyrosine-protein kinase Fyn (Homo sapiens) (P06241 2-537 limits assumed): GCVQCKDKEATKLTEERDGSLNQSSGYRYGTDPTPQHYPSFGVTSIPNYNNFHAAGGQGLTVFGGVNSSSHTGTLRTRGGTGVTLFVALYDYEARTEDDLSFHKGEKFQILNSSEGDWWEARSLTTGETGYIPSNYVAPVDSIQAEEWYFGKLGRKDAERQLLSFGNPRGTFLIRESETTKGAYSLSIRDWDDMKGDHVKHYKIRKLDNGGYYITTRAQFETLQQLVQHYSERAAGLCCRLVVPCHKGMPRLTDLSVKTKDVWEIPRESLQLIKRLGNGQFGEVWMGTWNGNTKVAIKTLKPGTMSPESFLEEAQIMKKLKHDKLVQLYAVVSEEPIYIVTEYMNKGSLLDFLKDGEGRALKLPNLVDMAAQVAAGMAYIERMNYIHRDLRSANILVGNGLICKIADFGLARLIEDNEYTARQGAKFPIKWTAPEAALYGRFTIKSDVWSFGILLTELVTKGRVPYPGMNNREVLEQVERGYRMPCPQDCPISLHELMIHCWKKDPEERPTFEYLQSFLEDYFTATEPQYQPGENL
Sequence of Macrophage colony-stimulating factor 1 receptor (Homo sapiens) (P07333 whole entry): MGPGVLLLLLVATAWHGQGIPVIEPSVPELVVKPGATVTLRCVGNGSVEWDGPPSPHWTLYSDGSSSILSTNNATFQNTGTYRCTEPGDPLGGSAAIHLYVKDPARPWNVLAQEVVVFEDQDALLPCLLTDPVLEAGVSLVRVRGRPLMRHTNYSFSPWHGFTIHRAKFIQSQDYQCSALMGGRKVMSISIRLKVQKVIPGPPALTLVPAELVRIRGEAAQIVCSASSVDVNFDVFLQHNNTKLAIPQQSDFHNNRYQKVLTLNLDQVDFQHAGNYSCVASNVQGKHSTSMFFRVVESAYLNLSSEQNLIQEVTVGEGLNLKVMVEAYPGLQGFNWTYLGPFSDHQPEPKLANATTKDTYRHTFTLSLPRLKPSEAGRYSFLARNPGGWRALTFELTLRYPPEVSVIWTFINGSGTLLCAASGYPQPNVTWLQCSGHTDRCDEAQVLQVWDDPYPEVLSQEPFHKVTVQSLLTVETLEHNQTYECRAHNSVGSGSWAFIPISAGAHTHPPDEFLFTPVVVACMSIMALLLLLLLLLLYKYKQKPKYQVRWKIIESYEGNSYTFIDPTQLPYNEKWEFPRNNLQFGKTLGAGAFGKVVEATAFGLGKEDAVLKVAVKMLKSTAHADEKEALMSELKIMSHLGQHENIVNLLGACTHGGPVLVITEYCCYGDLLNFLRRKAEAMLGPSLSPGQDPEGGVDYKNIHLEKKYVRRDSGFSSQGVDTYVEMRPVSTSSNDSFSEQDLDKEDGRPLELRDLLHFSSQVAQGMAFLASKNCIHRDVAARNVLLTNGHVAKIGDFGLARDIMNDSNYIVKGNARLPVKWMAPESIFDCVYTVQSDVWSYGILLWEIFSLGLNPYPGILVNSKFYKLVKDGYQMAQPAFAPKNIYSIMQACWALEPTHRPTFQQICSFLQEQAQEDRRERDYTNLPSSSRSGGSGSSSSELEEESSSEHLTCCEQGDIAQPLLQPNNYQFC

% of control [1]: 6.6%
% of control [2]: 100%
SMILES: CCN(CC)CCCCNc1ncc2cc(-c3cc(OC)cc(OC)c3)c(NC(=O)NC(C)(C)C)nc2n1

SMILES: CN(C)CCOc1ccc(-c2nc(-c3ccncc3)c(-c3ccc4c(c3)CC/C4=N\O)[nH]2)cc1
% of control [3]: 87%

SMILES: CNC(=O)Nc1ccc(-c2nc(N3CC4CCC(C3)O4)c3cnn(C4CCC5(CC4)OCCO5)c3n2)cc1
% of inhibition [4]: 0%

SMILES: N#Cc1cccc(-c2c[nH]c3ncnc(N4CCOCC4)c23)c1
% of control [5]: 100%
% of control [6]: 65%

SMILES: C=CC(=O)Nc1ccc(C(=O)Nc2[nH]nc3c2CN(C(=O)N[C@H](CN(C)C)c2ccccc2)C3(C)C)cc1
% of engagement ([7]; Selectivity number of off-targets 0.0, Selectivity number of targets 233.0, Source Knowledge https://www.sciencedirect.com/science/article/pii/S2451945619300674?via%3Dihub): 5.2%
% of engagement [7]: 4.4%

% of inhibition ([8]; at 0.01 µM): 14.2%
% of inhibition ([8]; at 0.04 µM): 9.6%
% of inhibition ([8]; at 0.2 µM): 16.3%
% of inhibition ([8]; at 1 µM): 36.4%
% of inhibition ([8]; at 5 µM): 61.2%
% of inhibition [9]: 3.09%
SMILES: CC[C@@H]1[C@H](F)C(=O)N[C@@H]1COc1nccc2cc(C(N)=O)c(OC)cc12 [ZIMLOVISERTIB]

dTM [10]: -1.04 K
SMILES: Cc1cc(CN)cc(C)c1-c1ncn(C)c1-c1cncn1C
